Test results: paper PMC4721062, “Oxadiazole-2-oxides may have other functional targets, in addition to SjTGR, through which they cause mortality in Schistosoma japonicum” (Parasites & Vectors, 2016)
Like-named read-outs stand apart in the source and are kept apart here.

Experiments:
recombinant SjTGR = molecular target: T1, recombinant SjTGR (Schistosoma japonicum, UniProt B5THG7); experiment: Inhibition of TrxR activity of recombinant SjTGR (DTNB assay); type: biochemical; details: IC50 of SjTGR, 50 nM SjTGR, 1 mM NADPH, 15 min preincubation, DTNB reduction
T1 sequence (B5THG7 1-596): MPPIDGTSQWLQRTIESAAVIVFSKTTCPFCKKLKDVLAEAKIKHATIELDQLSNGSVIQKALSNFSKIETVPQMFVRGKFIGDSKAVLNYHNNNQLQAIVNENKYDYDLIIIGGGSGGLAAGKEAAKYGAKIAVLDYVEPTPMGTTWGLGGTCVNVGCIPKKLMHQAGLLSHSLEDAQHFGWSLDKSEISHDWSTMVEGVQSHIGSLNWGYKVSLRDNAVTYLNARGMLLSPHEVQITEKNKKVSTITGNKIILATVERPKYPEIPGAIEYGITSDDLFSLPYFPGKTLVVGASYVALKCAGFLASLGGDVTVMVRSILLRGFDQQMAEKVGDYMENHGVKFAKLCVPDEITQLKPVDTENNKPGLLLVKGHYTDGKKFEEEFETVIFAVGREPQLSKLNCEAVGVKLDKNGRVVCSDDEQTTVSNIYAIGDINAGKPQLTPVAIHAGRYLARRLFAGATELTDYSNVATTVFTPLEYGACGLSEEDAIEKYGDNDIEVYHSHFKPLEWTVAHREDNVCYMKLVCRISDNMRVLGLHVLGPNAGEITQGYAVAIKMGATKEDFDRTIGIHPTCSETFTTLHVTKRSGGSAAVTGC
Procedure: The purified recombinant SjTGR proteins were produced according to the method described by Song et al.. The inhibition of TrxR activity by the recombinant SjTGR was performed as reported by Rai et al.. Briefly, 50 nM SjTGR and 1 mM NADPH were incubated with different concentrations of oxadiazole-2-oxides (2, 4, 6, 10, 20 μM) for 15 min at room temperature. Then, potassium phosphate buffer (pH 7.4) containing 10 mM EDTA, 100 μM NADPH, and 3 mM DTNB was added to start the reaction. The increase of absorbance at 412 nm was monitored during the first 2 min. All assays were done in triplicate.
50 nM SjTGR and 1 mM NADPH were incubated with different concentrations of oxadiazole-2-oxides (2, 4, 6, 10, 20 μM) for 15 min at room temperature. Then, potassium phosphate buffer (pH 7.4) containing 10 mM EDTA, 100 μM NADPH, 3 mM DTNB was added to start the reaction. The increase in absorbance at 412 nm was monitored during the first 2 min. All assays were done in triplicate. Results shown are the mean ± SD (n = 3)

juvenile S. japonicum = experiment: microbe, parasite or virus in culture; type: cell-based; details: juvenile worms
Procedure: Infected Oncomelania hupensis, provided by the Department of Snail Biology, Jiangsu Institute of Parasitic Diseases, were incubated at 25–28 °C, under illumination, for 2 h to hatch S. japonicum cercariae. The cercariae were collected from the water surface with clean cover glass and placed into a centrifuge tube using pre cooled RPMI 1640. Centrifugation was performed for 1 min at 1500 rpm, and then the steps above were repeated. After centrifugation, the supernatant solution was removed. The cercariae at the bottom were washed twice and resuspended with RPMI 1640. Approximately 20–30 cercariae (1 mL of the resuspension medium) were added to one well in a 24-well culture plate. They were incubated overnight at 37 °C with 5 % CO2. The survival rates and number of tails shed were observed under an inverted microscope. Cercariae that had shed their tails were used as juvenile S. japonicum.
20–30 juvenile worms were transferred into each well of a 24-well culture plate, containing 2 mL RPMI 1640 medium, 20 mM HEPES, 100 IU/mL penicillin, […] streptomycin and 10 % fetal bovine serum. Then, oxadiazole-2-oxides (2, 5, 10, and 50 μM), diluted with the RPMI 1640 medium, were added to their allocated wells. The worms in the negative control wells were treated with equal volumes of RPMI 1640 or DMSO and worms treated with AS were observed as positive controls. The juvenile worms’ survival rates were observed under an inverted phase contrast microscope (Leica, Wetzlar, Germany) at 24, 48 and 72 h. Parasite death was defined as an unclear internal structure of the juvenile worms, with incomplete tegument and contents overflowing radially, or unclear internal structure with complete tegument, but having no motor activity during 1 min of continuous observation. All assays were repeated three times.
^b Data collected by visual examination of worm movement and shape; % D = The number of worms dead / The total number of worms observed, and worms dead judged by unclear internal structure of juvenile worms with uncompleted tegument, and contents overflowing radially, or unclear internal structure with complete tegument, but having no motor activity during 1 min of continuous observation. The data presented are the average of three independent experiments.

[1] = system: juvenile S. japonicum in mice; experiment: Treatment of infected mice at juvenile worm stage; type: in vivo, Schistosoma japonicum (ICR mice); details: 10 mg/kg i.p. daily for 5 days from day 7 post-infection
Procedure: (§1) The abdominal skin of each mouse (ICR, female, 22–24 g) was exposed to 20 S. japonica cercariae (as described above). The mice were intraperitoneally injected with 10 mg/kg oxadiazole-2-oxides daily for 5 days, beginning either 7 or 35 days post-infection. Control mice were treated with 10 mg/kg of the carrier medium. All mice were sacrificed 42 days post-infection. The worm burden of each mouse was confirmed by counting the number of worms observed from a portal vein perfusion. The mouse livers were digested overnight with 5 % potassium hydroxyl solution at 37 °C and the eggs in the liver tissue were counted under an inverted phase contrast microscope. The worm and egg reduction rates were calculated using the following formulas: Wormreductionrate%=meannumberofadultwormspermouseincontrolgroup−meannumberofadultwormspermouseinexperimentalgroup/meannumberofadultwormspermouseincontrolgroup. Eggreductionrate%=meannumberofeggspermouseincontrolgroup−meannumberofeggspermouseinexperimentalgroup/meannumberofeggspermouseincontrolgroup.

[2] = Cytotoxicity assay on Hela cells (MTT); type: cell-based; details: human
Procedure: Cytotoxicity assays were performed using Hela cells. Cells in the exponential growth phase were collected by centrifugation and a concentration of 4–5 × 10^4/mL was created. 100 μL of the cell suspension was added to each well of a 96-well plate and cultured overnight at 37 °C in a humid atmosphere with 5 % CO2. Oxadiazole-2-oxides (at 10, 20, 40, 80 and 160 μM) were added. Each concentration was assayed in triplicate, and control wells (no cells and no drugs) were assayed at the same time. The “no cell” control wells only contained RPMI 1640 medium, MTT, DMSO, and oxadiazole-2-oxides. The “no drug” control wells contained the Hela cells, RPMI 1640 medium, MTT and DMSO. The cells were cultured for 48 h at 37 °C in a humid atmosphere with 5 % CO2. Then, 20 μL of 5 mg/mL MTT was added to each well and the culture conditions were maintained for 4 h. After this point, the medium was removed and 150 μL DMSO was added into each well to dissolve any crystallisation. The value of absorbance at 570 nm of each well was measured (at 570 nm) with a microplate reader to assess the toxic effect of the oxadiazole-2-oxides on the vertebrate cells.

adult S. japonicum = experiment: microbe, parasite or virus in culture; type: cell-based; details: adult worms
Description: ICR mice (20–22 g), were obtained from the Shanghai Sub-Center of Experimental Animals, Chinese Academy of Sciences. They were maintained at the Department of Experimental Animals, Jiangsu Institute of Parasitic Diseases. To infect each mouse, its abdominal skin was exposed to 50 S. japonica cercariae. All of the mice were executed to collect S. japonica adult worms, through portal vein perfusion, 35 days post-infection. The adult S. japonica collected were washed with RPMI 1640 medium and then kept in RPMI 1640 medium (pH 7.5) with HEPES 20 mM, penicillin (100 IU/mL), streptomycin ([…]) and 10 % fetal bovine serum. Then, two pairs of adult worms were transferred into each well of a 24-well culture plate, with 2 mL of the same medium. The worms were cultured at 37 °C in a humid atmosphere with 5 % CO2.
Adult worms were cultured in a 24-well culture plate for 30–60 min at 37 °C, in a humid atmosphere with 5 % CO2. Then, oxadiazole-2-oxides at different concentrations (10, 25, 50, 100 μM) were added. Equal volumes of RPMI 1640 or DMSO were applied as negative controls, while PZQ was applied as a positive control. The adult worm mobility and parasite survival rates were monitored using an inverted phase contrast microscope, at 24, 48 and 72 h. Parasite death was defined as there being no motor activity during 2 min of continuous observation, and morphological and tegumental alterations. All assays were repeated three times.
^b Data collected by visual examination of worm movement and shape; n.e. […] The data presented are the average of three independent experiments.

[3] = system: adult S. japonicum in mice; experiment: Treatment of infected mice at adult worm stage; type: in vivo, Schistosoma japonicum (ICR mice)
Procedure: as §1

[4] = Schistosoma japonicum, 24 h, read-out: Killing activity 24hr
[5] = Schistosoma japonicum, 48 h, read-out: Killing activity 48hr
[6] = Schistosoma japonicum, 72 h, read-out: Killing activity 72hr
[7] = mice, 10 mg/kg i.p. daily for 5 days from day 35 post-infection, sacrificed day 42

Question: For C[C@@H]1CC[C@H]2[C@@H](C)C(=O)O[C@@H]3O[C@@]4(C)CC[C@@H]1[C@]32OO4 [AS, artemisinin, reference compound], which IC50 (recombinant SjTGR) is on record?
Answer: > 20 µM

Question: And the killing at 2 µM (juvenile S. japonicum; [4])?
Answer: 16.2%

Question: And the killing at 2 µM (juvenile S. japonicum; [5])?
Answer: 24.3%

Question: What about the killing at 2 µM (juvenile S. japonicum; [6]) of the same compound?
Answer: 32.4%

Question: What about the killing at 5 µM (juvenile S. japonicum; [4]) of the same compound?
Answer: 34.1%

Question: What about the killing at 5 µM (juvenile S. japonicum; [5]) of the same compound?
Answer: 36.4%

Question: What about the killing at 5 µM (juvenile S. japonicum; [6]) of the same compound?
Answer: 40.9%

Question: What about the killing at 50 µM (juvenile S. japonicum; Schistosoma japonicum, 50 μM, 24 h, read-out: Killing activity 24hr) of the same compound?
Answer: 51.3%

Question: And the mortality at 50 µM (juvenile S. japonicum; Schistosoma japonicum, 50 μM, 24 h, read-out: Mortality of juvenile worms)?
Answer: 51.3 ± 5.1%

Question: And the killing at 50 µM (juvenile S. japonicum; Schistosoma japonicum, 50 μM, 48 h, read-out: Killing activity 48hr)?
Answer: 66.7%

Question: What about the killing at 50 µM (juvenile S. japonicum; Schistosoma japonicum, 50 μM, 72 h, read-out: Killing activity 72hr) of the same compound?
Answer: 76.9%

Question: What about the “Killing activity 24hr” value (juvenile S. japonicum; 10 μM, 24 h) of the same compound?
Answer: 47.6%D

Question: What about the “Killing activity 48hr” value (juvenile S. japonicum; 10 μM, 48 h) of the same compound?
Answer: 66.7%D

Question: What about the “Killing activity 72hr” value (juvenile S. japonicum; 10 μM, 72 h) of the same compound?
Answer: 71.4%D

Question: And the “Number of eggs per gram of liver (Mean ± SD)” value ([1]; sacrificed day 42)?
Answer: 2,932.2 ± 1,149.3

Question: What about the “Number of worms (Mean ± SD)” value ([1]; sacrificed day 42) of the same compound?
Answer: 2.3 ± 1.0

Question: And the Egg reduction rate ([1]; versus control)?
Answer: 63.5 (P < 0.01^*) %

Question: What about the Worm reduction rate ([1]; versus control, 10 mg/kg) of the same compound?
Answer: 78.5 (P < 0.01^*) %

Question: With O=C(C1CCCCC1)N1CC(=O)N2CCc3ccccc3C2C1 (centres unmarked) [PZQ, praziquantel, reference compound] as the compound, how does the IC50 (recombinant SjTGR) read?
Answer: > 20 µM

Question: And the viability at 72 h, 80 µM [2]?
Answer: 76%

Question: What about the killing at 25 µM (adult S. japonicum; Schistosoma japonicum, 25 μM, 24 h, read-out: Killing activity 24hr) of the same compound?
Answer: 25%

Question: What about the mortality at 25 µM (adult S. japonicum; Schistosoma japonicum, 25 μM, 24 h, read-out: Mortality of adult worms) of the same compound?
Answer: 25 ± 7.8%

Question: What about the killing at 25 µM (adult S. japonicum; Schistosoma japonicum, 25 μM, 48 h, read-out: Killing activity 48hr) of the same compound?
Answer: 25%

Question: And the killing at 25 µM (adult S. japonicum; Schistosoma japonicum, 25 μM, 72 h, read-out: Killing activity 72hr)?
Answer: 62.5%

Question: What about the killing at 50 µM (adult S. japonicum; [4]) of the same compound?
Answer: 25%

Question: And the killing at 50 µM (adult S. japonicum; [5])?
Answer: 37.5%

Question: What about the killing at 50 µM (adult S. japonicum; [6]) of the same compound?
Answer: 62.5%

Question: And the killing at 100 µM (adult S. japonicum; [4])?
Answer: 37.5%

Question: And the killing at 100 µM (adult S. japonicum; [5])?
Answer: 50%

Question: And the killing at 100 µM (adult S. japonicum; [6])?
Answer: 87.5%

Question: What about the “Killing activity 24hr” value (adult S. japonicum; 10 μM, 24 h) of the same compound?
Answer: 25.0%D

Question: And the “Killing activity 48hr” value (adult S. japonicum; 10 μM, 48 h)?
Answer: 25.0%D

Question: And the “Killing activity 72hr” value (adult S. japonicum; 10 μM, 72 h)?
Answer: 37.5%D

Question: And the “Reduction in the female worms” value ([3]; mice treated at adult worm stage (data not shown))?
Answer: 60.5%

Question: What about the “Number of eggs per gram of liver (Mean ± SD)” value [3, 7] of the same compound?
Answer: 3721.5 ± 1600.6

Question: What about the “Number of worms (Mean ± SD)” value [3, 7] of the same compound?
Answer: 3.3 ± 1.7

Question: What about the Egg reduction rate ([3]; mice, 10 mg/kg i.p. daily for 5 days from day 35 post-infection, versus control) of the same compound?
Answer: 53.7 (P < 0.01^*) %

Question: And the Worm reduction rate ([3]; mice, 10 mg/kg i.p. daily for 5 days from day 35 post-infection, versus control, 10 mg/kg)?
Answer: 72.3 (P < 0.01^*) %
